Tests used:
brain TSPO [1] = target: T1, brain TSPO (Homo sapiens, UniProt P30536); assay: Prediction of brain TSPO occupancy in steady state, once daily in humans (Biological example 9); conditions: trough concentration
T1 construct: from tissue; host or cells: living human brain (PET, healthy adults)
From the text: A transition in the plasma concentration of the compound of the present invention, in a steady state when administered once daily, was predicted.

brain TSPO [2] = target: T1, brain TSPO; assay: Prediction of brain TSPO occupancy in steady state, once daily in humans (Biological example 8); conditions: for ROmax (%) Predicted 5 percentile / ROmax (%) Predicted 95 percentile / ROmax (%) Predicted median: maximum brain TSPO occupancy; for ROmin (%) Predicted 5 percentile / ROmin (%) Predicted 95 percentile / ROmin (%) Predicted median: minimum brain TSPO occupancy
From the text: Further, a transition in the plasma concentration of the compound of the present invention, in a steady state when administered once daily, was predicted. And brain TSPO occupancy was predicted by using the relationship between plasma concentration and brain TSPO occupancy that shown in FIG. 5.

[3] = tested on: female diarrhea-type IBS patients; assay: PSS (Perceived Stress Scale) in the clinical trial of Biological example 10; type: in vivo, human; conditions: 60 mg treatment
Protocol: (§1) In the clinical trial of Biological example 10, the therapeutic effect of the compound of the present invention 60 mg treatment on depression and anxiety-related diseases were evaluated using PSS (Perceived Stress Scale) (refer to Journal of Health and Social Behavior, 24, 386-396, 1983), HAM-A (Hamilton Anxiety Scale) (refer to The British journal of medical psychology, 32, 50-55, 1959) and HAM-D (Hamilton Depression scale) (refer to Journal of Neurology, Neurosurgery and Psychiatry, 23, 56-62, 1960) as rating scales.

[4] = tested on: fear conditioning stress rats; assay: Antianxiety effect (1): freezing time in fear conditioning stress rats; type: in vivo; conditions: rat, 1 and 3 mg/kg oral, 2 h before 30 min stress load, Dunnett test
From the text: Male Crj: CD (SD) rats (Charles River Laboratories Japan, Inc., at the time of evaluation: 8 weeks old) were used to load conditioned fear stress in accordance with Funatsu et al. method (European Journal of Pharmacology, Vol. 573, p. 190-195, 2007). The day before of fear conditioning, the rat was put in an electric shock device which was placed in a soundproof box to acclimate to the evaluation environment. The day of fear conditioning, the rat was put in the electric shock device. The conditioning, 5 seconds electric current load (2.0 mA) and light irradiation (3 pieces of 40 W fluorescent bulbs) followed by 3 seconds warning sound (60 to 70 db), was carried out a total 15 times at 1 minute intervals. The rat of the non-stressed group was given a warning sound and light irradiation without performing the electric current load during fear conditioning. The day after the fear conditioning, the vehicle (0.5 w/v % methylcellulose 400 cP solution) or the compound of the present invention (0.3, 1 or 3 mg/kg) was orally administered to the rat. Two hours after the administration, the rat was put in the electric shock device. […] The behavior of the rat was photographed with a video camera during the 30 minutes of stress load and freezing time was measured.

[5] = tested on: female diarrhea-type IBS patients; assay: HAM-D (Hamilton Depression scale) in the clinical trial of Biological example 10; type: in vivo, human; conditions: 60 mg treatment
Protocol: as §1

T1 sequence (P30536 whole entry): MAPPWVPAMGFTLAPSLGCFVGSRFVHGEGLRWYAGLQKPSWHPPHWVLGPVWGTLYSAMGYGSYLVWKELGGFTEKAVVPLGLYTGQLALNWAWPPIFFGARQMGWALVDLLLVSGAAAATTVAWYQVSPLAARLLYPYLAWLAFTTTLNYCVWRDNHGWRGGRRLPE

TSPO Occupancy (%) Predicted 5 percentile (brain TSPO [1]; dose 5 mg): 42.8%
TSPO Occupancy (%) Predicted 95 percentile (brain TSPO [1]; dose 5 mg): 70.3%
TSPO Occupancy (%) Predicted median (brain TSPO [1]; dose 5 mg): 57.4%
TSPO Occupancy (%) Predicted 5 percentile (brain TSPO [1]; dose 10 mg): 59.8%
TSPO Occupancy (%) Predicted 95 percentile (brain TSPO [1]; dose 10 mg): 82.3%
TSPO Occupancy (%) Predicted median (brain TSPO [1]; dose 10 mg): 73.1%
TSPO Occupancy (%) Predicted 5 percentile (brain TSPO [1]; dose 20 mg): 74.6%
TSPO Occupancy (%) Predicted 95 percentile (brain TSPO [1]; dose 20 mg): 90.5%
TSPO Occupancy (%) Predicted median (brain TSPO [1]; dose 20 mg): 84.4%
TSPO Occupancy (%) Predicted 5 percentile (brain TSPO [1]; dose 30 mg): 81.6%
TSPO Occupancy (%) Predicted 95 percentile (brain TSPO [1]; dose 30 mg): 93.4%
TSPO Occupancy (%) Predicted median (brain TSPO [1]; dose 30 mg): 89.0%
TSPO Occupancy (%) Predicted 5 percentile (brain TSPO [1]; dose 60 mg): 90.0%
TSPO Occupancy (%) Predicted 95 percentile (brain TSPO [1]; dose 60 mg): 96.7%
TSPO Occupancy (%) Predicted median (brain TSPO [1]; dose 60 mg): 94.2%
TSPO Occupancy (%) Predicted 5 percentile (brain TSPO [1]; dose 100 mg): 95.3%
TSPO Occupancy (%) Predicted 95 percentile (brain TSPO [1]; dose 100 mg): 98.4%
TSPO Occupancy (%) Predicted median (brain TSPO [1]; dose 100 mg): 97.4%
ROmax (%) Predicted 5 percentile (brain TSPO [2]; dose 1 mg): 28.3%
ROmax (%) Predicted 95 percentile (brain TSPO [2]; dose 1 mg): 48.8%
ROmax (%) Predicted median (brain TSPO [2]; dose 1 mg): 38.4%
ROmin (%) Predicted 5 percentile (brain TSPO [2]; dose 1 mg): 11.5%
ROmin (%) Predicted 95 percentile (brain TSPO [2]; dose 1 mg): 30.5%
ROmin (%) Predicted median (brain TSPO [2]; dose 1 mg): 19.4%
ROmax (%) Predicted 5 percentile (brain TSPO [2]; dose 5 mg): 60.5%
ROmax (%) Predicted 95 percentile (brain TSPO [2]; dose 5 mg): 84.6%
ROmax (%) Predicted median (brain TSPO [2]; dose 5 mg): 72.0%
ROmin (%) Predicted 5 percentile (brain TSPO [2]; dose 5 mg): 38.0%
ROmin (%) Predicted 95 percentile (brain TSPO [2]; dose 5 mg): 67.7%
ROmin (%) Predicted median (brain TSPO [2]; dose 5 mg): 52.5%
ROmax (%) Predicted 5 percentile (brain TSPO [2]; dose 10 mg): 69.6%
ROmax (%) Predicted 95 percentile (brain TSPO [2]; dose 10 mg): 94.2%
ROmax (%) Predicted median (brain TSPO [2]; dose 10 mg): 80.9%
ROmin (%) Predicted 5 percentile (brain TSPO [2]; dose 10 mg): 52.8%
ROmin (%) Predicted 95 percentile (brain TSPO [2]; dose 10 mg): 81.0%
ROmin (%) Predicted median (brain TSPO [2]; dose 10 mg): 67.1%
ROmax (%) Predicted 5 percentile (brain TSPO [2]; dose 20 mg): 75.1%
ROmax (%) Predicted 95 percentile (brain TSPO [2]; dose 20 mg): 100.0%
ROmax (%) Predicted median (brain TSPO [2]; dose 20 mg): 86.4%
ROmin (%) Predicted 5 percentile (brain TSPO [2]; dose 20 mg): 64.6%
ROmin (%) Predicted 95 percentile (brain TSPO [2]; dose 20 mg): 91.5%
ROmin (%) Predicted median (brain TSPO [2]; dose 20 mg): 77.6%
ROmax (%) Predicted 5 percentile (brain TSPO [2]; dose 30 mg): 77.0%
ROmax (%) Predicted 95 percentile (brain TSPO [2]; dose 30 mg): 102.6%
ROmax (%) Predicted median (brain TSPO [2]; dose 30 mg): 88.5%
ROmin (%) Predicted 5 percentile (brain TSPO [2]; dose 30 mg): 69.7%
ROmin (%) Predicted 95 percentile (brain TSPO [2]; dose 30 mg): 94.9%
ROmin (%) Predicted median (brain TSPO [2]; dose 30 mg): 81.8%
ROmax (%) Predicted 5 percentile (brain TSPO [2]; dose 50 mg): 78.7%
ROmax (%) Predicted 95 percentile (brain TSPO [2]; dose 50 mg): 104.0%
ROmax (%) Predicted median (brain TSPO [2]; dose 50 mg): 90.2%
ROmin (%) Predicted 5 percentile (brain TSPO [2]; dose 50 mg): 74.1%
ROmin (%) Predicted 95 percentile (brain TSPO [2]; dose 50 mg): 99.0%
ROmin (%) Predicted median (brain TSPO [2]; dose 50 mg): 85.8%
ROmax (%) Predicted 5 percentile (brain TSPO [2]; dose 60 mg): 78.8%
ROmax (%) Predicted 95 percentile (brain TSPO [2]; dose 60 mg): 104.2%
ROmax (%) Predicted median (brain TSPO [2]; dose 60 mg): 91.0%
ROmin (%) Predicted 5 percentile (brain TSPO [2]; dose 60 mg): 75.0%
ROmin (%) Predicted 95 percentile (brain TSPO [2]; dose 60 mg): 100.1%
ROmin (%) Predicted median (brain TSPO [2]; dose 60 mg): 87.0%
ROmax (%) Predicted 5 percentile (brain TSPO [2]; dose 70 mg): 79.4%
ROmax (%) Predicted 95 percentile (brain TSPO [2]; dose 70 mg): 104.8%
ROmax (%) Predicted median (brain TSPO [2]; dose 70 mg): 91.2%
ROmin (%) Predicted 5 percentile (brain TSPO [2]; dose 70 mg): 76.4%
ROmin (%) Predicted 95 percentile (brain TSPO [2]; dose 70 mg): 101.1%
ROmin (%) Predicted median (brain TSPO [2]; dose 70 mg): 88.2%
ROmax (%) Predicted 5 percentile (brain TSPO [2]; dose 100 mg): 80.1%
ROmax (%) Predicted 95 percentile (brain TSPO [2]; dose 100 mg): 106.1%
ROmax (%) Predicted median (brain TSPO [2]; dose 100 mg): 92.1%
ROmin (%) Predicted 5 percentile (brain TSPO [2]; dose 100 mg): 77.6%
ROmin (%) Predicted 95 percentile (brain TSPO [2]; dose 100 mg): 103.1%
ROmin (%) Predicted median (brain TSPO [2]; dose 100 mg): 90.0%
SMILES: COc1cc(Cl)ccc1[C@H]1c2[nH]c3cccc(F)c3c2C2(CC2)CN1C(C)=O [the compound of the present invention, (1S)-2-acetyl-1-(4-chloro-2-methoxyphenyl)-5-fluoro-1,2,3,9-tetrahydrospiro[β-carboline-4,1′-cyclopropane]]
PSS score, 4th week ([3]; Patient A, baseline 35): 19
PSS score, Amount of change from baseline ([3]; Patient A, baseline 35, 4th week): −16
PSS score, 4th week ([3]; Patient B, baseline 23): 13
PSS score, Amount of change from baseline ([3]; Patient B, baseline 23, 4th week): −10
PSS score, 4th week ([3]; Patient C, baseline 18): 6
PSS score, Amount of change from baseline ([3]; Patient C, baseline 18, 4th week): −12
freezing time vs. vehicle control group [4]: shortened this extended freezing time significantly
HAM-D score, 4th week ([5]; Patient D, baseline 18): 2
HAM-D score, Amount of change from baseline ([5]; Patient D, baseline 18, 4th week): −16
HAM-D score, 4th week ([5]; Patient E, baseline 13): 3
HAM-D score, Amount of change from baseline ([5]; Patient E, baseline 13, 4th week): −10
HAM-D score, 4th week ([5]; Patient F, baseline 20): 13
HAM-D score, Amount of change from baseline ([5]; Patient F, baseline 20, 4th week): −7
HAM-D score, 4th week ([5]; Patient G, baseline 13): 4
HAM-D score, Amount of change from baseline ([5]; Patient G, baseline 13, 4th week): −9

From US20170119742A1, “MEDICAMENT FOR PREVENTING AND/OR TREATING STRESS DISEASES” (ONO PHARMACEUTICAL CO., LTD., priority 2014, published 2017)
